Measured values: US8008286B2, “Method for treatment of neuropathic pain” (University of Virginia Patent Foundation, priority 2006, dated 2011)

Experiments:
SPHK2 enzyme = biological target: T1, SPHK2 enzyme (Homo sapiens, UniProt Q9NRA0); assay: Phosphorylation by the SPHK2 enzyme in vitro; assay type: biochemical; conditions: separated isomers of VPC01091, in vitro
T1 sequence (Q9NRA0 1-654): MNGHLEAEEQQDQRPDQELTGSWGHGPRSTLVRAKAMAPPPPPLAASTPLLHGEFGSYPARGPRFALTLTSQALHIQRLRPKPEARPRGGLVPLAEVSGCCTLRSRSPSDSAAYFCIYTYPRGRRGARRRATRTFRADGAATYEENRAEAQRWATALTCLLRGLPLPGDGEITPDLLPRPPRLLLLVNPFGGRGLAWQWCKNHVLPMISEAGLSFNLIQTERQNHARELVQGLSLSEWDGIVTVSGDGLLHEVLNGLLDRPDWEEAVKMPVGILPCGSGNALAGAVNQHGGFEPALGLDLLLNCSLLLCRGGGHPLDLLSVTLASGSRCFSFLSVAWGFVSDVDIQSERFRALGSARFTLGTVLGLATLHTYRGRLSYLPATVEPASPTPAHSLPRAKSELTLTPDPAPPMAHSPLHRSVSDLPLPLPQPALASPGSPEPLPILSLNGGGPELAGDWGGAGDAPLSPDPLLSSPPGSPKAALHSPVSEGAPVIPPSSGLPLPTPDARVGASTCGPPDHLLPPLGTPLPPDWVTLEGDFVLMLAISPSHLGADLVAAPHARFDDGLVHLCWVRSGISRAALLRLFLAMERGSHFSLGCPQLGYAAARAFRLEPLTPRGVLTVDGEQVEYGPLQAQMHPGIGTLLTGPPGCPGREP
Protocol: These compounds can be prepared as a mixture and separated by chromatography. Exemplary conditions for separation are as follows: Column: Chiralpak AD 4.6 mm ID×250 mm, Mobile Phase: Hex/EtOH/MeOH/DEA=95/2.5/2.5/0.03, Flow Rate: 1 mL/min, Detector: UV 220 nm, Column Temp: 40° C., or Column Temp: 25° C.

[1] = system: sciatic nerve injury (CCI) model; assay: Sciatic nerve injury (CCI) model of neuropathic pain, mechanical allodynia; assay type: in vivo, rat; conditions: rats, 3 mg/kg p.o. once a day for 5 days, started 2 weeks after nerve injury
Text: In these models, oral treatment with VPC01091-D was started 2 weeks following nerve injury, once the pain was established. A control group received only vehicle. Following once a day dosing for 5 days, […].) reversed mechanical allodynia by 42±8% in the CCI model. (See FIG. 5).

[2] = system: spinal nerve injury (SNL) model; assay: Spinal nerve injury (SNL) model of neuropathic pain, mechanical allodynia; assay type: in vivo, rat; conditions: rats, 3 mg/kg p.o., started 2 weeks after nerve injury
Text: In these models, oral treatment with VPC01091-D was started 2 weeks following nerve injury, once the pain was established. A control group received only vehicle.

[3] = system: rat with a crushed sciatic nerve; assay: Pain assay, 'trauma' model of neuropathic pain (crushed sciatic nerve), paw withdrawal latency with heat lamp; assay type: in vivo; conditions: rats, 10 mg/kg IP once on day 0, tested each day
Protocol: Test compound, VPC01091 (Drug T, mixture of all isomers), was dissolved in 2% hydroxypropyl beta-cyclodextrin in water and administered to the test group of laboratory rats. The vehicle (Drug V: 2% hydroxypropyl beta-cyclodextrin in water) was administered to the control group of laboratory rats. Each group included 11 animals.
The identities of ‘Drug T’ and ‘Drug V’ were maintained in secret to prevent bias. The test solutions (test compound or vehicle) were intraperitoneally (IP) administered once (day 0), the dose was 10 mg/kg body weight. On day 0, each of the 22 animals was anesthetized, the sciatic nerve bundle on the right side exposed surgically, and crushed mechanically. This is known as the ‘trauma’ model of neuropathic pain. The animals were tested each day for the time required to lift either paw after illumination with small heat lamp.

SMILES | phosphorylated by the SPHK2 enzyme in vitro (SPHK2 enzyme) | reversed mechanical allodynia [1] [%] | analgesic activity [2] [%] | analgesic effect (PWL time increases after injury), only on the affected side [3] | development of thermal hyperalgesia in the affected (crushed nerve) paw (PWL) [3]
CCCCCCCCc1ccc([C@H]2CC[C@](N)(CO)C2)cc1 [VPC01091-D] | not phosphorylated | 42±8 | 50±10 | – | –
CCCCCCCCc1ccc(C2CCC(N)(CO)C2)cc1 (centres unmarked) [VPC01091, (1-amino-3-(4-octylphenyl)cyclopentyl)methanol] | – | – | – | exhibited an analgesic effect | prevented the development of thermal hyperalgesia
